Measured values reported in ChEMBL document CHEMBL1201862, “PubChem BioAssay data set” (2004).
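These data come from cells grown in 96-well plates and exposed to compound for 48 hours at five concentrations. Abbreviation: GI50, concentration required for 50% inhibition of growth.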 Calls of active or inactive are those of the source. No stated cut-off is given here; in the data, active = GI50 up to about 1.1 µM and inactive = higher.

How the values were obtained:
Assay in all cases: inhibition of tumour cell growth, NCI panel, 48 h
[1] = system: Malme-3M
[2] = system: MOLT-4
[3] = system: MCF7
[4] = system: HT-29
[5] = system: NCI-H23
[6] = system: HOP-92
[7] = system: OVCAR-5
[8] = system: SNB-75
[9] = system: A549
[10] = system: BT-549
[11] = system: EKVX
[12] = system: RPMI-8226
[13] = system: HCT-116
[14] = system: OVCAR-8
[15] = system: ACHN
[16] = system: SF-295
[17] = system: SW-620
[18] = system: RXF 393
[19] = system: SR
[20] = system: MDA-N

SMILES | GI50 [1] | GI50 [2] | GI50 [3] | GI50 [4] | GI50 [5] | GI50 [6] | GI50 [7] | GI50 [8] | GI50 [9] | GI50 [10] | GI50 [11] | GI50 [12] | GI50 [13] | GI50 [14] | GI50 [15] | GI50 [16] | GI50 [17] | GI50 [18] | GI50 [19] | GI50 [20]
COc1cc2c(c(OC)c1OC)C(=O)CC2N (configuration not stated) | > 100 µM (inactive) | > 100 µM (inactive) | > 100 µM (inactive) | > 100 µM (inactive) | > 100 µM (inactive) | > 100 µM (inactive) | > 100 µM (inactive) | > 100 µM (inactive) | > 100 µM (inactive) | > 100 µM (inactive) | > 100 µM (inactive) | > 100 µM (inactive) | > 100 µM (inactive) | > 100 µM (inactive) | > 100 µM (inactive) | > 100 µM (inactive) | > 100 µM (inactive) |  |  | 
Cc1ccc2c(c1)C(C(=O)N[C@@H]1C(=O)N3[C@@H]1SC(C)(C)[C@@H]3C(=O)O)OCCC2 (some centres not stated) |  | > 100 µM (inactive) | > 100 µM (inactive) | > 100 µM (inactive) | > 100 µM (inactive) | > 100 µM (inactive) | > 100 µM (inactive) | > 100 µM (inactive) | > 100 µM (inactive) | > 100 µM (inactive) | > 100 µM (inactive) | > 100 µM (inactive) | > 100 µM (inactive) | > 100 µM (inactive) | > 100 µM (inactive) | > 100 µM (inactive) | > 100 µM (inactive) | > 100 µM (inactive) | > 100 µM (inactive) | 
CN1CNc2nc(N)n(C)c(=O)c2C1 | > 10 µM (inactive) | > 10 µM (inactive) |  | > 10 µM (inactive) | > 10 µM (inactive) | > 10 µM (inactive) | > 10 µM (inactive) | 7.46 µM (inactive) | > 10 µM (inactive) | > 10 µM (inactive) | > 10 µM (inactive) |  |  | > 10 µM (inactive) | > 10 µM (inactive) | > 10 µM (inactive) |  | > 10 µM (inactive) | > 10 µM (inactive) | > 10 µM (inactive)
O=c1[nH]c(=S)c2cc3c(=S)[nH]c(=O)n(CCC(c4ccccc4)(c4ccccc4)c4ccccc4)c3nc2n1CCC(c1ccccc1)(c1ccccc1)c1ccccc1 | > 100 µM (inactive) | 15.4 µM (inactive) | > 100 µM (inactive) |  | > 100 µM (inactive) | > 100 µM (inactive) | > 100 µM (inactive) | > 100 µM (inactive) | > 100 µM (inactive) | > 100 µM (inactive) | > 100 µM (inactive) | > 100 µM (inactive) | > 100 µM (inactive) |  | > 100 µM (inactive) | > 100 µM (inactive) |  |  |  | > 100 µM (inactive)
O=C1CNc2cc(N3CCN(c4ccccc4)CC3)ccc2N1 | > 100 µM (inactive) | > 100 µM (inactive) |  | > 100 µM (inactive) | > 100 µM (inactive) | > 100 µM (inactive) | > 100 µM (inactive) | > 100 µM (inactive) | > 100 µM (inactive) | > 100 µM (inactive) | 34.1 µM (inactive) | > 100 µM (inactive) | > 100 µM (inactive) | > 100 µM (inactive) | > 100 µM (inactive) | > 100 µM (inactive) | > 100 µM (inactive) | > 100 µM (inactive) | > 100 µM (inactive) | 
COc1ccc2c(c1OC)C(C(Cl)(Cl)Cl)N1CCc3cc4c(cc3C1=C2)OCO4 (configuration not stated) | 11.5 µM (inactive) | 16 µM (inactive) | 28.1 µM (inactive) | 25.8 µM (inactive) | 12.9 µM (inactive) | 23.9 µM (inactive) | 72.6 µM (inactive) | 46.5 µM (inactive) | 35.6 µM (inactive) | 1.03 µM (active) | 42.7 µM (inactive) | 2.08 µM (inactive) | 10.6 µM (inactive) | 8.11 µM (inactive) | 22.9 µM (inactive) | 9.31 µM (inactive) | 21.2 µM (inactive) |  |  | 15.4 µM (inactive)
